Values quoted from earlier work, collected in patent US8247391B2, “Gel compositions” (De Montfort University, priority 2001, dated 2012).
Values after ≈ are worked out from the molar mass of the structure shown.

Conditions: room temperature, pH 7.3 buffer (with antioxidants)

| water solubility [µM] | Compound |
| --- | --- |
| 0.11 (≈ 0.0313 µg/mL) | CC1=C(/C=C/C(C)=C/C=C/C(C)=C/C=O)C(C)(C)CCC1 [retinal, retinaldehyde] |
| 0.06 (≈ 0.0172 µg/mL) | CC1=C(/C=C/C(C)=C/C=C/C(C)=C/CO)C(C)(C)CCC1 [retinol, Retinol] |

| Compound | water solubility [µM] |
| --- | --- |
| CC1=C(/C=C/C(C)=C/C=C/C(C)=C/C(=O)O)C(C)(C)CCC1 [retinoic acid] | 0.21 (≈ 0.0631 µg/mL) |
